Assay results published in patent US9221827B2, “Antimicrobial compounds and methods of making and using the same” (Melinta Therapeutics, Inc., priority 2011, dated 2015).

Test system: Escherichia coli strain ATCC25922
Experiment: standard microdilution assay to determine minimum inhibitory concentrations (MICs)
Assay type: cell-based
Outline: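 MICs come from CLSI-guided microdilution in 100 μl, run alongside reference-strain performance standards. Values appear as "+" or "−" relative to 16 micrograms/ml, with "N/A" marking missing data.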

[1] = Escherichia coli strain ATCC25922, microdilution
[2] = Escherichia coli strain ATCC25922, standard microdilution assay

In the case of `C[C@@H](N)CCCc1cc(-c2cc3cn(-c4ccc(CNCCCNC(=N)N)cc4)c(=O)nc3[nH]2)cc(C(F)(F)F)c1` [Compound 249], the “E. coli ATCC25922 MIC” value [1] is reported as “+ (a “+” indicates that the compound has an MIC value of 16 micrograms/ml or less)”.
In the case of `C[C@H](N)COCc1cc(-c2cc3cn(-c4ccc(CNCCCNC(=N)N)cc4)c(=O)nc3[nH]2)cc(C(F)(F)F)c1` [Compound 323], the “E. coli ATCC25922 MIC” value [1] is reported as “+ (a “+” indicates that the compound has an MIC value of 16 micrograms/ml or less)”.
With `C[C@H](N)CCCc1cc(CC(C)(C)C)c(F)c(-c2cc3cn(-c4ccc([C@H](C)NCCCNC(=N)N)cc4)c(=O)nc3[nH]2)c1` [Compound 458] the “E. coli ATCC25922 MIC” value [2] was “+ (a “+” indicates that the compound has an MIC value of 16 micrograms/ml or less)”.
With `C[C@H](N)CCCc1cc(C(F)(F)F)cc(-c2cc3cn(-c4ccc([C@H](C)NCCCNC(=N)N)cc4)c(=O)nc3[nH]2)n1` [Compound 390] the MIC (Escherichia coli strain ATCC25922, standard microdilution assay, read-out: E. coli ATCC25922 MIC) was ≤ 16 mg/L.
In the case of `NCCCCc1cc(Cl)c(Cl)c(-c2cc3cn(-c4ccc(CNCCCN=C(N)N)cc4)c(=O)nc3[nH]2)c1` [Compound 62], the “E. coli ATCC25922 MIC” value [1] is reported as “+ (a “+” indicates that the compound has an MIC value of 16 micrograms/ml or less)”.
`C[C@H](NCCCNC(=N)N)c1ccc(-n2cc3cc(-c4cc(CC[C@@H](C)N)cc(C(F)(F)F)c4)[nH]c3nc2=O)cc1` [Compound 410] was tested, and the “E. coli ATCC25922 MIC” value [2] was “+ (a “+” indicates that the compound has an MIC value of 16 micrograms/ml or less)”.
For `N=C(N)NCCCNCc1ccc(-n2cc3cc(-c4cc(CCCCN)cc(C(F)(F)F)c4F)[nH]c3nc2=O)cc1` [Compound 111], the “E. coli ATCC25922 MIC” value [1] was “+ (a “+” indicates that the compound has an MIC value of 16 micrograms/ml or less)”.
For `NC(N)=NCCCNCc1ccc(-n2cc3cc(-c4cccc(CCCO)c4)[nH]c3nc2=O)cc1` [Compound 66], the “E. coli ATCC25922 MIC” value [1] was “− (a “−” indicates that the compound has an MIC value greater than 16 micrograms/ml)”.
With `Cc1cc(CCC[C@H](C)N)cc(-c2cc3cn(-c4ccc(CNCCCNC(=N)N)cc4)c(=O)nc3[nH]2)c1C` [Compound 467] the “E. coli ATCC25922 MIC” value [2] was “+ (a “+” indicates that the compound has an MIC value of 16 micrograms/ml or less)”.
In the case of `CCCOc1cc(CCCCN)cc(-c2cc3cn(-c4ccc(CNCCCNC(=N)N)cc4)c(=O)nc3[nH]2)c1C(F)(F)F` [Compound 251], the “E. coli ATCC25922 MIC” value [1] is reported as “+ (a “+” indicates that the compound has an MIC value of 16 micrograms/ml or less)”.
For `N=C(N)NCCCNCc1ccc(-n2cc3cc(-c4cc(C5CCC(N)CC5)cc(C(F)(F)F)c4)[nH]c3nc2=O)cc1` (mixture of isomers) [Compound 425], the “E. coli ATCC25922 MIC” value [2] was “+ (a “+” indicates that the compound has an MIC value of 16 micrograms/ml or less)”.
With `C[C@H](N)CCCc1cc2c(c(-c3cc4cn(-c5ccc(CNCCCNC(=N)N)cc5)c(=O)nc4[nH]3)c1)COC2` [Compound 442] the “E. coli ATCC25922 MIC” value [2] was “+ (a “+” indicates that the compound has an MIC value of 16 micrograms/ml or less)”.
With `C[C@H](NCCCNC(=N)N)c1ccc(-n2cc3cc(-c4cc(COCCN)cc(OC(F)(F)F)c4)[nH]c3nc2=O)cc1` [Compound 70] the “E. coli ATCC25922 MIC” value [1] was “+ (a “+” indicates that the compound has an MIC value of 16 micrograms/ml or less)”.
For `CC(N)COCc1cc(SC(F)(F)F)cc(-c2cc3cn(-c4ccc(C(C)NCCCNC(=N)N)cc4)c(=O)nc3[nH]2)c1` (stereo not shown) [Compound 345], the “E. coli ATCC25922 MIC” value [2] was “+ (a “+” indicates that the compound has an MIC value of 16 micrograms/ml or less)”.
`CCNCCc1cc(CCCCN)cc(-c2cc3cn(-c4ccc(CNCCCNC(=N)N)cc4)c(=O)nc3[nH]2)c1` [Compound 26] was tested, and the “E. coli ATCC25922 MIC” value [1] was “+ (a “+” indicates that the compound has an MIC value of 16 micrograms/ml or less)”.
In the case of `NCc1ccc(-n2cc3cc(-c4cc(CCC5(CN)CC5)cc(SC(F)(F)F)c4)[nH]c3nc2=O)cc1` [Compound 357], the “E. coli ATCC25922 MIC” value [2] is reported as “− (a “−” indicates that the compound has an MIC value greater than 16 micrograms/ml)”.
In the case of `CSCCc1cc(CCCCN)cc(-c2cc3cn(-c4ccc(CNCCCNC(=N)N)cc4)c(=O)nc3[nH]2)c1` [Compound 11], the “E. coli ATCC25922 MIC” value [1] is reported as “+ (a “+” indicates that the compound has an MIC value of 16 micrograms/ml or less)”.
For `CCN=C(N)NCCCNC(C)c1ccc(-n2cc3cc(-c4cc(CCCC(C)N)cc(Cl)c4F)[nH]c3nc2=O)cc1` (stereo not shown) [Compound 362], the “E. coli ATCC25922 MIC” value [2] was “+ (a “+” indicates that the compound has an MIC value of 16 micrograms/ml or less)”.
In the case of `CC(N)CCCc1cc(SC(F)(F)F)cc(-c2cc3cn(-c4ccc(C5(NCCCNC(=N)N)CC5)cc4)c(=O)nc3[nH]2)c1` (stereo not shown) [Compound 500], the “E. coli ATCC25922 MIC” value [1] is reported as “+ (a “+” indicates that the compound has an MIC value of 16 micrograms/ml or less)”.
For `CNC(C)CCCc1cc(-c2cc3cn(-c4ccc(C(C)NCCCNC(=N)N)cc4)c(=O)nc3[nH]2)cc(C(F)(F)F)c1` (stereo not shown) [Compound 290], the “E. coli ATCC25922 MIC” value [1] was “+ (a “+” indicates that the compound has an MIC value of 16 micrograms/ml or less)”.
For `CC(N)C(C)OCc1cc(OC(F)(F)F)cc(-c2cc3cn(-c4ccc(CNCCCNC(=N)N)cc4)c(=O)nc3[nH]2)c1` (stereo not shown) [Compound 418], the “E. coli ATCC25922 MIC” value [2] was “+ (a “+” indicates that the compound has an MIC value of 16 micrograms/ml or less)”.
`N=C(N)NCCCNCc1ccc(-n2cc3cc(-c4cc(CCCCN)cc(OC(F)F)c4Cl)[nH]c3nc2=O)cc1` [Compound 214] was tested, and the “E. coli ATCC25922 MIC” value [1] was “+ (a “+” indicates that the compound has an MIC value of 16 micrograms/ml or less)”.
`Cc1cc(CCCCN)cc(-c2cc3cn(-c4ccc(CNCCCN=C(N)N)cc4)c(=O)nc3[nH]2)c1Cl` [Compound 63] was tested, and the “E. coli ATCC25922 MIC” value [1] was “+ (a “+” indicates that the compound has an MIC value of 16 micrograms/ml or less)”.
In the case of `N=C(N)NCCCNCc1ccc(-n2cc3cc(-c4cc(CCCCN)cc(OC(F)(F)F)c4)[nH]c3nc2=O)cc1` [Compound 221], the “E. coli ATCC25922 MIC” value [1] is reported as “+ (a “+” indicates that the compound has an MIC value of 16 micrograms/ml or less)”.
`N=C(N)NCCCNCc1ccc(-n2cc3cc(-c4cc(CSCCN)cc(OC(F)(F)F)c4)[nH]c3nc2=O)cc1` [Compound 8] was tested, and the “E. coli ATCC25922 MIC” value [1] was “+ (a “+” indicates that the compound has an MIC value of 16 micrograms/ml or less)”.
`CCC(N)COC(C)c1cc(-c2cc3cn(-c4ccc([C@H](C)NCCCNC(=N)N)cc4)c(=O)nc3[nH]2)cc(C(F)(F)F)c1` (stereo partly shown) [Compound 480] was tested, and the “E. coli ATCC25922 MIC” value [1] was “+ (a “+” indicates that the compound has an MIC value of 16 micrograms/ml or less)”.
`C[C@H](NCCCNC(=N)N)c1ccc(-n2cc3cc(-c4cc(CC5CCC(N)CC5)cc(Cl)c4F)[nH]c3nc2=O)cc1` (stereo partly shown) [Compound 449] was tested, and the “E. coli ATCC25922 MIC” value [2] was “+ (a “+” indicates that the compound has an MIC value of 16 micrograms/ml or less)”.
For `Cc1cc(-c2cc3cn(-c4ccc(CNCCCN=C(N)N)cc4)c(=O)nc3[nH]2)cc(CCCCN)c1F` [Compound 73], the “E. coli ATCC25922 MIC” value [1] was “+ (a “+” indicates that the compound has an MIC value of 16 micrograms/ml or less)”.
For `NCCCCc1cc(F)c(Cl)c(-c2cc3cn(-c4ccc(CNCCCN=C(N)N)c(F)c4)c(=O)nc3[nH]2)c1` [Compound 71], the “E. coli ATCC25922 MIC” value [1] was “+ (a “+” indicates that the compound has an MIC value of 16 micrograms/ml or less)”.
In the case of `CC(N)CCCc1cc(CCl)cc(-c2cc3cn(-c4ccc(CNCCCNC(=N)N)cc4)c(=O)nc3[nH]2)c1` (stereo not shown) [Compound 266], the “E. coli ATCC25922 MIC” value [1] is reported as “+ (a “+” indicates that the compound has an MIC value of 16 micrograms/ml or less)”.
For `C[C@H](N)CCCc1cc2c(c(-c3cc4cn(-c5ccc([C@H](C)NCCCNC(=N)N)cc5)c(=O)nc4[nH]3)c1)COC2` [Compound 441], the “E. coli ATCC25922 MIC” value [2] was “+ (a “+” indicates that the compound has an MIC value of 16 micrograms/ml or less)”.
With `CN(CCCNC(=N)N)Cc1ccc(-n2cc3cc(-c4cc(CCCCN)cc(C(F)(F)F)c4)[nH]c3nc2=O)cc1` [Compound 338] the “E. coli ATCC25922 MIC” value [2] was “+ (a “+” indicates that the compound has an MIC value of 16 micrograms/ml or less)”.
For `CNC(C)CCCc1cc(SC(F)(F)F)cc(-c2cc3cn(-c4ccc(CNCCCNC(=N)N)cc4)c(=O)nc3[nH]2)c1` (stereo not shown) [Compound 294], the “E. coli ATCC25922 MIC” value [1] was “+ (a “+” indicates that the compound has an MIC value of 16 micrograms/ml or less)”.
In the case of `CC(NCCCNC(=N)N)c1ccc(-n2cc3cc(-c4cc(CCC5CC(N)C5)cc(Cl)c4F)[nH]c3nc2=O)cc1` (stereo not shown) [Compound 384], the “E. coli ATCC25922 MIC” value [2] is reported as “+ (a “+” indicates that the compound has an MIC value of 16 micrograms/ml or less)”.
In the case of `C[C@H](N)CCCc1cc(-c2cc3cn(-c4ccc(CNCCCNC(=N)N)cc4)c(=O)nc3[nH]2)cc(C(C)(C)C)c1` [Compound 439], the “E. coli ATCC25922 MIC” value [2] is reported as “+ (a “+” indicates that the compound has an MIC value of 16 micrograms/ml or less)”.
For `COC(=O)CC(NCCCNC(=N)N)c1ccc(-n2cc3cc(-c4cc(CCCC(C)N)cc(Cl)c4F)[nH]c3nc2=O)cc1` (stereo not shown) [Compound 487], the “E. coli ATCC25922 MIC” value [1] was “+ (a “+” indicates that the compound has an MIC value of 16 micrograms/ml or less)”.
For `CC(N)CC=Cc1cc(Cl)c(F)c(-c2cc3cn(-c4ccc(C(C)NCCCNC(=N)N)cc4)c(=O)nc3[nH]2)c1` (stereo not shown) [Compound 343], the “E. coli ATCC25922 MIC” value [2] was “+ (a “+” indicates that the compound has an MIC value of 16 micrograms/ml or less)”.
In the case of `CCC(N)CCCc1cc(SC(F)(F)F)cc(-c2cc3cn(-c4ccc(CNCCCNC(=N)N)cc4)c(=O)nc3[nH]2)c1` (stereo not shown) [Compound 380], the “E. coli ATCC25922 MIC” value [2] is reported as “+ (a “+” indicates that the compound has an MIC value of 16 micrograms/ml or less)”.
With `N=C(N)NCCCNCc1ccc(-n2cc3cc(-c4cc(CCCCN)cc(C5CNC5)c4)[nH]c3nc2=O)cc1` [Compound 4] the “E. coli ATCC25922 MIC” value [1] was “+ (a “+” indicates that the compound has an MIC value of 16 micrograms/ml or less)”.
In the case of `C[C@H](NCCCNC(=N)N)c1ccc(-n2cc3cc(-c4cc(CO[C@@H](C)CN)cc(C(F)(F)F)c4)[nH]c3nc2=O)cc1` [Compound 315], the “E. coli ATCC25922 MIC” value [1] is reported as “+ (a “+” indicates that the compound has an MIC value of 16 micrograms/ml or less)”.
With `COC[C@H](N)CCCc1cc(SC(F)(F)F)cc(-c2cc3cn(-c4ccc(CNCCCNC(=N)N)cc4)c(=O)nc3[nH]2)c1` [Compound 424] the “E. coli ATCC25922 MIC” value [2] was “+ (a “+” indicates that the compound has an MIC value of 16 micrograms/ml or less)”.
`C[C@H](N)CCCc1cc(C(F)(F)F)cc(-c2cc3cn(-c4ccc(CNCCCNC(=N)N)cc4)c(=O)nc3[nH]2)n1` [Compound 389] was tested, and the “E. coli ATCC25922 MIC” value [2] was “+ (a “+” indicates that the compound has an MIC value of 16 micrograms/ml or less)”.
With `CC(N)CCCc1cc(-c2cc3cn(-c4ccc(C(NCCCNC(=N)N)C(=O)O)cc4)c(=O)nc3[nH]2)cc(C(F)(F)F)c1` (stereo not shown) [Compound 497] the “E. coli ATCC25922 MIC” value [1] was “− (a “−” indicates that the compound has an MIC value greater than 16 micrograms/ml)”.
